Source: patent publication US7354711B2, “Methods for inhibiting immunostimulatory DNA associated responses” (University of Iowa Research Foundation, priority 1997, dated 2008)

Experiments:
WEHI 231 cells [1] = test: CpG-ODN-induced IL-6 synthesis (ELISA); type: cell-based, mouse; settings: 30 nM
Description: The assay of IL6 was generally carried out as follows. […] After 24 hours, the IL-6 content of the supernatant was assayed by enzyme-linked immunoassay using two monoclonal antibodies in a sandwich technique as described by the manufacturer, using standards supplied (PharMingen, San Diego Calif.).

WEHI 231 cells [2] = test: Inhibition of CpG-ODN 1760 protection against α-sIgM-induced inhibition of [3H] thymidine uptake; type: cell-based, mouse; settings: for Inhibition of the CpG-ODN effect (FIG. 1): at nanomolar concentrations, 10 μg/mL α-sIgM, 6 μg/mL ODN 1760; for Fold: activity expressed as a fraction of activity of chloroquine / Activity: -log10 of the concentration (M) required for half maximal inhibition of CpG-ODN effect on [3H] thymidine uptake in the presence of α-sIgM: Table 2, 4-aminoquinolines; for Activity: -log10 of the concentration (M) required for half maximal inhibition of CpG-ODN effect on [3H] thymidine uptake in the presence of α-sIgM / Activity,-log10 (concentration (M) for half maximal inhibition of CpG-ODN effect on [3H] thymidine uptake in the presence of α-sIgM): WEHI 231 cells; for vs. Chloroquine, fold / Activity,-log10 (concentration (M) for half maximal inhibition of CpG-ODN effect on [3H] thymidine uptake in the presence of α-sIgM): Table 3, 9-aminoacridines; for Effect on CpG-ODN action (FIG. 1): at concentrations less than 10 μM
Description: The assay of [^3H] Thymidine incorporation was carried out as follows. WEHI 231 cells (200 μL at 2×10^5/milliliter, in duplicate or triplicate) were incubated in a 96-well plate (Costar, Cambridge Mass.). Additions were made as indicated. After incubating for 16 hours, 0.5 μCi [methyl-^3H] thymidine (2 Ci/millimole, DuPont NEN, Boston Mass.) was added to each well, and the cells were incubated for another 4 hours. Cellular DNA was then captured onto glass fiber filters (Whatman 934AH) using a cell harvester (Brandel, Gaithersberg Md.). The filters were dried, placed into plastic scintillation vials with 10 milliliters of scintillation cocktail (EconoSafe, Research Products International, Mount Prospect Ill.), and counted in a liquid scintillation counter (Beckman LS-3133 T). The ^3H recovered on the filter was expressed as a fraction of the ^3H added.
Referring to experiments summarized in FIG. 1, WEHI 231 cells (ca. 2×10^5 per milliliter) were incubated for 16 hours at 37° C. with 10 μgrams/milliliter α-sIgM, 6 μgrams/milliliter ODN 1760, and the indicated concentration of the compound. After 16 hours, 0.5 μCi [^3H] thymidine was added. After 4 more hours incubation, the cellular DNA was harvested onto glass fiber filters. The dry filters were counted in a liquid scintillation counter.
Each experimental point was the mean of at least duplicate measurements.
Referring to the experiments summarized in FIG. 3, 10 μgrams/milliliter α-sIgM and the indicated concentrations of ODN 1760 and quinacrine were added simultaneously to WEHI 231 cells. Thymidine incorporation was estimated at 16 hours as described for Example 1.
Referring to the experiments summarized in FIG. 4, WEHI 231 cells were incubated with α-sIgM and ODN 1760. At times thereafter 0.1 μM quinacrine was added (data shown in the left three bars). Cells were incubated with 10 μgrams/milliliter (α-sIgM and ODN 1760 (6 μgrams/milliliter, phosphorothioate or a phosphodiester ODN with the same sequence as 1760 (PD ODN) (30 μM at time 0 hours and 8 hours; data represented in right six bars in FIG. 4). [^3H] thymidine incorporation was estimated at 16 hours.
The symbol — indicates no change. Me and Et indicate —CH3 and —CH2CH3 respectively. Aromatic substituents are in the para position except as indicated. The activity is —log10 of the concentration (M) required for half maximal inhibition of CpG-ODN effect on [^3H] thymidine uptake in the presence of α-sIgM.

[3] = tested on: human peripheral blood mononuclear cells (PBMC); test: ODN 1760-induced IL-6 production in human peripheral blood mononuclear cells; type: cell-based; settings: 24 hours
Description: Referring to the experiments summarized in FIG. 9, human peripheral blood mononuclear cells (PBMC) from three donors were incubated with or without ODN 1760 and the indicated concentration of test compound. After 24 hours, the concentration of IL-6 was determined in the supernatant. The figure indicates the percentage of IL-6 in reference to ODN-treated cells. The IL-6 amounts for control sample per donor were as follows: donor 1, 203 picograms/milliliter; donor 2, 71.5 picograms/milliliter; donor 3, 465 picograms/milliliter. IL-6 measured from untreated cells was 0-21 picograms/milliliter. Results from the three donors were averaged, and error bars indicate 1 standard deviation.

human mononuclear cells = test: ODN 1760-induced [3H] thymidine incorporation in human mononuclear cells; type: cell-based; settings: unfractionated human peripheral blood cells, four days
Description: [^3H] thymidine incorporation (18 hour pulse) was then measured. […] Thymidine incorporation for untreated samples was less than 0.05%. Samples from three donors were averaged, and error bars indicate 1 standard deviation.

7TD1 cells = test: Inhibition of 7TD1 cell growth; type: cell-based, mouse
Description: One particularly useful cell line for the assay of immunostimulatory DNA action is the mouse-mouse hybridoma plasma cell line 7TD1(ATTC #CRL 1851), which requires exoqenous IL-6 for growth, and has been used to characterize and assay IL-6 (Papadopolous et al., 1995. J. Clin. Lab. Anal. 9:234-7; Krakauer, 1993. J. Immunoassay 14:267-77).
The 7TD1 cells were grown in RPMI 1640 supplemented with 10% fetal bovine serum (heat inactivated at 65° C., 1 hour), 0.3 grams/Liter L-glutamine, 50 milligrams/Liter gentamycin, 0.05 mM 2-mercaptoethanol, and 10 units per milliliter murine IL-6 in a 37° C. humid atmosphere with 5% CO2. Viable 7TD1 cells were counted in a hemocytometer chamber in duplicate after dilution with 0.4% trypan blue.
The 7TD1 cells were incubated for five days and were washed twice with medium to remove IL-6, and resuspended at 2×10^4 per milliliter in medium. Cell counts were performed and the percent inhibition of growth was computed. The term “anti” refers to 40 nanograms/milliliter neutralizing antibody to IL-6.

[4] = tested on: multi-drug resistance pump; test: Potency with inhibition of the multi-drug resistance pump; type: cell-based
[5] = 6 μg/mL ODN 1760 + 1 μg chloroquine (so in the source)
[6] = 6 μg/mL ODN 1760 + 3μ chloroquine (so in the source)

Row | Molecule | Fold: activity expressed as a fraction of activity of chloroquine (WEHI 231 cells [2]) [fold] | Activity: -log10 of the concentration (M) required for half maximal inhibition of CpG-ODN effect on [3H] thymidine uptake in the presence of α-sIgM (WEHI 231 cells [2]) | other results
1 | CCN(CC)CCCC(C)Nc1ccnc2cc(Cl)ccc12 (stereo not shown) [chloroquine] | – | – | Reversal of ODN 1760 effect on IL-6 elaboration (WEHI 231 cells [1]): completely reversed; Inhibition of the CpG-ODN effect (FIG. 1) (WEHI 231 cells [2]): completely inhibited; Effect on ODN 1760-induced IL-6 production (FIG. 9) [3]: inhibited; Effect on ODN 1760-induced thymidine incorporation (FIG. 8) (human mononuclear cells): inhibited; 7TD1 cells/μL (7TD1 cells; [5]): 7 cells/μL; % Growth Inhibition (7TD1 cells; [5]): 98.1%; 7TD1 cells/μL (7TD1 cells; [6]): 10 cells/μL; % Growth Inhibition (7TD1 cells; [6]): 97.5%; 7TD1 cells/μL (7TD1 cells; 10 μg/mL IL-6 + 1 μM compound): 610 cells/μL; % Growth Inhibition (7TD1 cells; 10 μg/mL IL-6 + 1 μM compound): 31.2%; % Growth Inhibition (7TD1 cells; 10 μg/mL IL-6 + 3 μM compound): 38.3%; Effect on IL-6-induced growth (7TD1 cells; 7TD1 cells, IL-6): little effect; Effect on growth stimulation by CpG-ODN (7TD1 cells; 7TD1 cells, ODN 1760): blocked; Change of potency on inhibition of the multi-drug resistance pump [4]: magnified
2 | CCN(CC)CCCC(C)Nc1cc(-c2ccccc2)nc2cc(Cl)ccc12 (stereo not shown) [compound 48] | 2.14 | 7.29 | –
3 | CCN(CC)CCCC(C)Nc1ccnc2cc(Oc3ccccc3)ccc12 (stereo not shown) [compound 50] | 0.74 | 6.83 | –
4 | CCN(CC)CCCC(C)Nc1ccnc2ccc(-c3ccccc3)cc12 (stereo not shown) [compound 51] | 1.62 | 7.17 | –
5 | CCN(CC)CC=CC(C)Nc1ccnc2cc(Cl)ccc12 (stereo not shown) [compound 53] | 0.81 | 6.87 | –
6 | CCN(CC)CCCC(CCl)Nc1ccnc2cc(Cl)ccc12 (stereo not shown) [compound 56] | 1.45 | 7.12 | –
7 | COc1ccc2nc3cc(Cl)ccc3c(NCCCNCCCCNCCCNc3c4ccc(Cl)cc4nc4ccc(OC)cc34)c2c1 [compound 58, bis-(6-chloro-2-methoxy-9-acridinyl)spermine] | – | – | vs. Chloroquine, fold (WEHI 231 cells [2]): 0.26 fold; Activity,-log10 (concentration (M) for half maximal inhibition of CpG-ODN effect on [3H] thymidine uptake in the presence of α-sIgM) (WEHI 231 cells [2]): 6.38
8 | COc1ccc2nc3cc(Cl)ccc3c(N)c2c1 [compound 59, 9-amino-6-chloro-2-methoxyacridine] | – | – | vs. Chloroquine, fold (WEHI 231 cells [2]): 1.00 fold; Activity,-log10 (concentration (M) for half maximal inhibition of CpG-ODN effect on [3H] thymidine uptake in the presence of α-sIgM) (WEHI 231 cells [2]): 6.96
9 | CCN(CC)CCC(CNc1ccnc2cc(Cl)ccc12)c1ccc(OC)cc1 (stereo not shown) [compound 61] | 0.79 | 6.86 | –
10 | CCN(CC)CCCC(C)Nc1c(C)cnc2cccc(Br)c12 (stereo not shown) [compound 62] | 0.35 | 6.51 | –
11 | CCN(CC)CCCC(C)Nc1c(C)cnc2c(OC)c(Cl)ccc12 (stereo not shown) [compound 63] | 0.10 | 5.95 | –
12 | CCN(CC)CCCC(C)Nc1ccnc2cc(Oc3ccccc3)ccc12 (stereo not shown) [compound 64] | 0.62 | 6.75 | –
13 | CCN(CC)CCC(CNc1c(C)cnc2cc(Cl)ccc12)c1ccc(Cl)c(Cl)c1 (stereo not shown) [compound 65] | 0.58 | 6.72 | –
14 | CN(C)C(C)(C)CCCNc1ccnc2cc(Cl)ccc12 [compound 68] | 0.81 | 6.87 | –
15 | CCOc1cc2c(NC(C)CCCN(CC)CC)c(C)cnc2cc1Cl (stereo not shown) [compound 71] | 0.09 | 5.90 | –
16 | CCN(CCO)CCCC(C)Nc1ccnc2cc(Cl)ccc12 (stereo not shown) [hydroxychloroquine, reference compound] | – | – | Inhibition of the CpG-ODN effect (FIG. 1) (WEHI 231 cells [2]): completely inhibited
17 | COc1cc(NC(C)CCCN)c2ncccc2c1 (stereo not shown) [primaquine, reference compound] | – | – | Effect on CpG-ODN action (FIG. 1) (WEHI 231 cells [2]): little effect
18 | C=C[C@H]1C[N@@]2CC[C@H]1C[C@H]2[C@H](O)c1ccnc2ccc(OC)cc12 [quinine, reference compound] | – | – | Effect on CpG-ODN action (FIG. 1) (WEHI 231 cells [2]): little effect
19 | IL-6: murine IL-6 purchased from PharMingen (protein, UniProt P08505 25-211, looked up) Interleukin-6: FPTSQVRRGDFTEDTTPNRPVYTTSQVGGLITHVLWEIVEMRKELCNGNSDCMNNDDALAENNLKLPEIQRNDGCYQTGYNQEICLLKISSGLLEYHSYLEYMKNNLKDNKKDKARVLQRDTETLIHIFNQEVKDLHKIVLPTPISNALLTDKLESQKEWLRTKTIQFILKSLEEFLKVTLRSTRQT | – | – | 7TD1 cells/μL (7TD1 cells; 10 μg/mL IL-6 alone, five days): 887 cells/μL
